# Key:
# K. pneumoniae [1] = assay: RIND VII reduction solution assay, ΔOD 635 nm; assay type: cell-based, Klebsiella pneumoniae; settings: K. pneumoniae 7 × 10^7 /ml, antibiotic 10^-4 molar
# S. aureus = assay: RIND XXIX reduction solution assay, Δ fluorescence; assay type: cell-based, Staphylococcus aureus; settings: S. aureus (gram +) about 5×10^7 cells/ml, gramicidin S 0.1 mg/ml, 37° C.
# Description: (§1) Bacterial suspensions were prepared by growing the cells in BHT broth to stationary phase overnight at 37° C. P. auruginosa was grown with agitation. About 40 ml of each overnight culture was centrifuged, decanted and washed once with 0.05 molar potassium phosphate buffer or 0.05 molar N-2-hydroxy-ethylpiperazine-N'-2-ethanesulfonic acid (HEPES) buffer, pH 7.8, and resuspended in buffer.
# Dispersions containing RIND compounds were prepared by dissolving the RIND compound in N,N-dimethylformamide (DMF) at 16 mg compound per ml of solvent. An aliquot (250 μl) of the resulting solution was added to 500 μl of TRITON X-100 surfactant. This mixture was then added dropwise with stirring to 25 ml of 0.05 molar HEPES buffer. A dispersion of RIND XXIX was prepared similarly except that DMF was acidified with 0.1% sulfuric acid. […]
# (§2) The solutions were incubated at 37° C. for 30 minutes, and the change in fluorescence emission (Δ fluorescence) was determined as the difference between the readings taken when the solutions were first mixed and then after 30 minutes incubation. Measurements were made in a commercially available MICROFLUOR Reader (available from Dynatech Laboratories, Alexandria, Virginia, U.S.A.), modified with an excitation filter at 540 nm, an emission filter at 620 nm and a Xenon lamp.
# E. cloacae = assay: RIND XXIX reduction solution assay, Δ fluorescence; assay type: cell-based, Enterobacter cloacae; settings: E. cloacae (gram -) about 5×10^7 cells/ml, gramicidin S 0.1 mg/ml, 37° C.
# Description: as §1
# (§3) Dispersions containing RIND compounds were prepared by dissolving the RIND compound in N,N-dimethylformamide (DMF) at 16 mg compound per ml of solvent. An aliquot (250 μl) of the resulting solution was added to 500 μl of TRITON X-100 surfactant. This mixture was then added dropwise with stirring to 25 ml of 0.05 molar HEPES buffer. A dispersion of RIND XXIX was prepared similarly except that DMF was acidified with 0.1% sulfuric acid. Compositions containing water-compatible RIND compounds were prepared as described above except the surfactant was omitted.
# (§4) Each test solution contained the following: dispersion of RIND XXIX (25 μl) prepared as described above, glucose (400 μl of 10% aqueous solution), tryptose (400 μl of 10% aqueous solution), trimethyl-1,4-benzoquinone ETA (500 μl of 1.5 mg/ml methanol). Aliquots (200 μl) of the mixture were mixed with solutions of the antibiotics (50 μl). The cell suspensions (50 μl) were then added. The final concentration of gramcidin S and tyrocidin were 0.1 mg/ml and 3.3 mg/ml, respectively. The final cell concentration was about 5×10^7 cells/ml. Cell control solutions contained all reagents except antibiotics. Background controls consisted of both buffer and solution controls. […]
# as §2, with “lamp. […]” for “lamp.”
# P. vulgaris [2] = assay: RIND XXIX reduction solution assay, Δ fluorescence; assay type: cell-based, Proteus vulgaris; settings: P. vulgaris (gram -) about 5×10^7 cells/ml, gramicidin S 0.1 mg/ml, 37° C.
# Description: as §1, §3, §4
# as §2, with “lamp. […]” for “lamp.”
# P. vulgaris [3] = assay: MTT reduction solution assay, ΔOD 540 nm; assay type: cell-based, Proteus vulgaris; settings: P. vulgaris (-) 5×10^7, gramicidin S 0.00625 mg/ml, 37° C.
# Description: (§5) These examples illustrate the differentiation of bacteria using a tetrazolium salt and phenolic dye as the reducible compounds and two cyclic polypeptide antibiotics according to the present invention. The tetrazolium salt was 3-(4,5-dimethyl-2-thiazolyl) -2,5-diphenyl-2H-tetrazolium bromide (MTT) which forms a colored formazan dye when reduced. The phenolic dye was 2,6-dichloroindophenol (DCIP) which forms a colorless species when reduced.
# (§6) Solutions of the reducible compounds were prepared with the following: HEPES buffer (3 ml, 0.05 molar, pH 7.5), TRITON X-100 nonionic surfactant (1% concentration), glucose (50 μl of 10% in water), tryptose (50 μl of a 10% solution in water), MTT (25 μl of 5 mg/ml methanol) or DCIP (25 μl of 3 mg/ml methanol) and phenazine methosultate ETA (25 μl of 3 mg/ml methanol).
# (§7) Test solutions were prepared from the following: reducible compound solution from above (200 μl), 50 μl of either gramicidin S solution (6 mg/ml methanol and 9 ml of buffer) or tyrocidin solution (100 mg/ml methanol and 8 ml of buffer) and 50 μl of cell suspension. […] The change in optical density (ΔOD) was determined after 30 minutes at 37° C. at 540 nm for the MTT assay and at 620 nm for the DCIP assay using a commercially available spectrophotometer.
# K. pneumoniae [4] = assay: DCIP reduction solution assay, ΔOD 620 nm; assay type: cell-based, Klebsiella pneumoniae; settings: K. pneumoniae (-) 5×10^7, gramicidin S 0.00625 mg/ml, 37° C.
# Description: as §5, §6, §7
# P. vulgaris [5] = assay: DCIP reduction solution assay, ΔOD 620 nm; assay type: cell-based, Proteus vulgaris; settings: P. vulgaris (-) 5×10^7, gramicidin S 0.00625 mg/ml, 37° C.
# Description: as §5, §6, §7
# [6] = test system: viable gram-positive and gram-negative bacteria; assay: Differentiation with dry analytical element, overall result; assay type: cell-based; settings: dry analytical element with RIND IX
# Description: The element used had the format and components illustrated below
# The appropriate cell suspension (10 μl) was applied to the spreading/reagent layer of each element. The reflection density (DR) was measured at 640 nm. After 10 minutes of incubation at 37° C., the DR was again measured, giving a ΔDr value. A Control solution (10 μl of either 0.5 molar HEPES or potassium phosphate buffer) was also applied to the elements and the ΔDR was similarly determined. The difference between the two ΔDR values gives a test value corrected for background.
substance,measurement,setting,value
gramicidin S,Corrected ΔOD (15 Minutes),K. pneumoniae [1],> 2.0
same,Δ Fluorescence (30 Minutes),S. aureus,0478
same,Δ Fluorescence (30 Minutes),E. cloacae,> 4000
same,Δ Fluorescence (30 Minutes),P. vulgaris [2],3491
same,"ΔOD, 540 nm after 30 Minutes",P. vulgaris [3],0.841
same,"ΔOD, 620 nm after 30 Minutes",K. pneumoniae [4],1.062
same,"ΔOD, 620 nm after 30 Minutes",P. vulgaris [5],1.029
same,"differentiation between viable gram-positive and gram-negative bacteria in an element, in words",[6],can be used in an element to differentiate between viable gram-positive and gram-negative bacteria

# Reference: patent publication US4912036A, “Rapid differentiation of bacteria using cyclic polypeptide antibiotics” (Eastman Kodak Company, priority 1986, dated 1990)
